These compounds were tested on monocytic THP1 cells infected with HIV VSV-G pseudotyped GFP-NEF reporter virus (assay: cells). Conditions: Human immunodeficiency virus 1, THP-1, 24 h.
Assay type: cell-based

| SMILES | EC50 |
| --- | --- |
| COCCNc1nc2nc(NC34CC(C#N)(C3)C4)nc(Oc3c(C)cc(/C=C/C#N)cc3C)c2[nH]1 [Compound 46, (E)-3-((6-(4-(2-cyanovinyl)-2,6-dimethylphenoxy)-8-((2-methoxyethyl)amino)-7H-purin-2-yl)amino)bicyclo[1.1.1]pentane-1-carbonitrile] | 88.6 nM |
| CNC(=O)CCn1nc(C)c2c(Oc3c(C)cc(/C=C/C#N)cc3C)nc(NC34CC(C#N)(C3)C4)nc21 [Compound 101, (E)-3-(6-((3-cyanobicyclo[1.1.1]pentan-1-yl)amino)-4-(4-(2-cyanovinyl)-2,6-dimethylphenoxy)-3-methyl-1H-pyrazolo[3,4-d]pyrimidin-1-yl)-N-methylpropanamide] | 59.6 nM |
| Cc1cc(/C=C/C#N)cc(C)c1Oc1nc(NC23CC(C#N)(C2)C3)nc2c1c(N)nn2C [Compound 125, 3-[[3-amino-4-[4-[(E)-2-cyanovinyl]-2,6-dimethyl-phenoxy]-1-methyl-pyrazolo[3,4-d]pyrimidin-6-yl]amino]bicyclo[1.1.1]pentane-1-carbonitrile] | 111 nM |
| Cc1cc(/C=C/C#N)cc(C)c1Oc1nc(NC23CC(C#N)(C2)C3)nc2nc(Nc3ccccc3)[nH]c12 [Compound 70, (E)-3-((6-(4-(2-cyanovinyl)-2,6-dimethylphenoxy)-8-(phenylamino)-7H-purin-2-yl)amino)bicyclo[1.1.1]pentane-1-carbonitrile] | 415 nM |
| Cn1cc2c(Oc3c(F)cc(/C=C/C#N)cc3Cl)nc(NC34CC(C#N)(C3)C4)nc2n1 [Compound 5, (E)-3-((4-(2-chloro-4-(2-cyanovinyl)-6-fluorophenoxy)-2-methyl-2H-pyrazolo[3,4-d]pyrimidin-6-yl)amino)bicyclo[1.1.1]pentane-1-carbonitrile] | 26.1 nM |
| Cc1cc(/C=C/C#N)cc(C)c1Oc1nc(NC23CC(C#N)(C2)C3)nc2c1nc(C)n2CC(F)F (single isomer, unassigned) [Compound 21, (E)-3-((6-(4-(2-cyanovinyl)-2,6-dimethylphenoxy)-9-(2,2-difluoroethyl)-8-methyl-9H-purin-2-yl)amino)bicyclo[1.1.1]pentane-1-carbonitrile] | 280 nM |
| Cc1cc(/C=C/C#N)cc(C)c1Oc1nc(NC23CC(C#N)(C2)C3)nc2c1nc(C)n2Cc1ccn[nH]1 (single isomer, unassigned) [Compound 19, (E)-3-((9-((1H-pyrazol-5-yl)methyl)-6-(4-(2-cyanovinyl)-2,6-dimethylphenoxy)-8-methyl-9H-purin-2-yl)amino)bicyclo[1.1.1]pentane-1-carbonitrile] | 90.9 nM |
| Cc1cc(/C=C/C#N)cc(C)c1Oc1nc(NC23CC(C#N)(C2)C3)nc2c1C(C)N(CCc1cnn(C)c1)C2=O (stereo not drawn) [Example 211, (E)-3-((4-(4-(2-cyanovinyl)-2,6-dimethylphenoxy)-5-methyl-6-(2-(1-methyl-1H-pyrazol-4-yl)ethyl)-7-oxo-6,7-dihydro-5H-pyrrolo[3,4-d]pyrimidin-2-yl)amino)bicyclo[1.1.1]pentane-1-carbonitrile] | 54.5 nM |
| Cc1cc(/C=C/C#N)cc(C)c1Oc1nc(NC23CC(C#N)(C2)C3)nc2c1C(C)N(C1CCOCC1)C2=O (stereo not drawn) [Example 215, (E)-3-((4-(4-(2-cyanovinyl)-2,6-dimethylphenoxy)-5-methyl-7-oxo-6-(tetrahydro-2H-pyran-4-yl)-6,7-dihydro-5H-pyrrolo[3,4-d]pyrimidin-2-yl)amino)bicyclo[1.1.1]pentane-1-carbonitrile] | 109 nM |
| Cc1cc(/C=C/C#N)cc(C)c1Oc1nc(NC23CC(C#N)(C2)C3)nc2c1ncn2CC1(C#N)CC1 [Compound 45, (E)-3-((9-((1-cyanocyclopropyl)methyl)-6-(4-(2-cyanovinyl)-2,6-dimethylphenoxy)-9H-purin-2-yl)amino)bicyclo[1.1.1]pentane-1-carbonitrile] | 53 nM |
| Cc1cc(/C=C/C#N)cc(C)c1Oc1nc(NC23CC(C#N)(C2)C3)nc2c1c(Cl)nn2C (single isomer, unassigned) [Compound 96, (E)-3-((3-chloro-4-(4-(2-cyanovinyl)-2,6-dimethylphenoxy)-1-methyl-11H-pyrazolo[3,4-d]pyrimidin-6-yl)amino)bicyclo[1.1.1]pentane-1-carbonitrile] | 360 nM |
| Cc1cc(/C=C/C#N)cc(C)c1Oc1nc(NC23CC(C#N)(C2)C3)nc2nc3n(c12)CC(F)(F)CO3 [Compound 189, (E)-3-((4-(4-(2-cyanovinyl)-2,6-dimethylphenoxy)-7,7-difluoro-7,8-dihydro-6H-[1,3]oxazino[2,3-f]purin-2-yl)amino)bicyclo[1.1.1]pentane-1-carbonitrile] | 109 nM |
| C=CCN1C(=O)c2nc(NC34CC(C#N)(C3)C4)nc(Oc3c(C)cc(/C=C/C#N)cc3C)c2C1C (stereo not drawn) [Example 205, (E)-3-((6-allyl-4-(4-(2-cyanovinyl)-2,6-dimethylphenoxy)-5-methyl-7-oxo-6,7-dihydro-5H-pyrrolo[3,4-d]pyrimidin-2-yl)amino)bicyclo[1.1.1]pentane-1-carbonitrile] | 42.7 nM |
| COc1n[nH]c2c(Oc3c(C)cc(/C=C/C#N)cc3C)nc(NC34CC(C#N)(C3)C4)nc12 [Compound 293, (E)-3-((7-(4-(2-cyanovinyl)-2,6-dimethylphenoxy)-3-methoxy-1H-pyrazolo[4,3-d]pyrimidin-5-yl)amino)bicyclo[1.1.1]pentane-1-carbonitrile] | 56.3 nM |
| Cc1cc(/C=C/C#N)cc(C)c1Oc1nc(NC23CC(C#N)(C2)C3)nc2nnn(C(F)F)c12 (single isomer, unassigned) [Compound 11, (E)-3-((7-(4-(2-cyanovinyl)-2,6-dimethylphenoxy)-1-(difluoromethyl)-1H-[1,2,3]triazolo[4,5-d]pyrimidin-5-yl)amino)bicyclo[1.1.1]pentane-1-carbonitrile] | 27.7 nM |
| Cc1cc(/C=C/C#N)cc(C)c1Oc1nc(NC23CC(C#N)(C2)C3)nc2nc3n(c12)C[C@@H](C)CO3 [Compound 186, (R,E)-3-((4-(4-(2-cyanovinyl)-2,6-dimethylphenoxy)-7-methyl-7,8-dihydro-6H-[1,3]oxazino[2,3-f]purin-2-yl)amino)bicyclo[1.1.1]pentane-1-carbonitrile] | 92 nM |
| CNC(=O)Cn1nc2nc(NC34CC(C#N)(C3)C4)nc(Oc3c(C)cc(/C=C/C#N)cc3C)c2c1C [Compound 98, (E)-2-(6-((3-cyanobicyclo[1.1.1]pentan-1-yl)amino)-4-(4-(2-cyanovinyl)-2,6-dimethylphenoxy)-3-methyl-2H-214-pyrazolo[3,4-d]pyrimidin-2-yl)-N-methylacetamide] | 94.3 nM |
| Cc1cc(/C=C/C#N)cc(C)c1Oc1nc(NC23CC(C#N)(C2)C3)nc2c(=O)n(C)n(C)c12 [Compound 291, (E)-3-((7-(4-(2-cyanovinyl)-2,6-dimethylphenoxy)-1,2-dimethyl-3-oxo-2,3-dihydro-1H-pyrazolo[4,3-d]pyrimidin-5-yl)amino)bicyclo[1.1.1]pentane-1-carbonitrile] | 31.1 nM |
| Cc1cc(/C=C/C#N)cc(C)c1Oc1nc(NC23CC(C#N)(C2)C3)nc2nn(-c3cnn(C)c3)cc12 [Example 232, (E)-3-((4-(4-(2-cyanovinyl)-2,6-dimethylphenoxy)-2-(1-methyl-1H-pyrazol-4-yl)-2H-pyrazolo[3,4-d]pyrimidin-6-yl)amino)bicyclo[1.1.1]pentane-1-carbonitrile] | 110 nM |
| Cc1cc(/C=C/C#N)cc(C)c1Oc1nc(NC23CC(C#N)(C2)C3)nc2c1C1(C)O[C@H](C)CN1C2=O (stereo partly drawn) [Compound 308, 3-(((6R)-4-(4-((E)-2-cyanovinyl)-2,6-dimethylphenoxy)-4b,6-dimethyl-9-oxo-4b,6,7,9-tetrahydrooxazolo[3′,2′:1,5]pyrrolo[3,4-d]pyrimidin-2-yl)amino)bicyclo[1.1.1]pentane-1-carbonitrile] | 60.1 nM |
| Cc1cc(/C=C/C#N)cc(C)c1Oc1nc(NC23CC(C#N)(C2)C3)nc2nn(CCO)cc12 [Compound 305, (E)-3-((4-(4-(2-cyanovinyl)-2,6-dimethylphenoxy)-2-(2-hydroxyethyl)-2H-pyrazolo[3,4-d]pyrimidin-6-yl)amino)bicyclo[1.1.1]pentane-1-carbonitrile] | 45 nM |
| Cc1cc([C@@H]2C[C@@H]2C#N)cc(C)c1Oc1nc(NC23CC(C#N)(C2)C3)nc2nn(C)cc12 (racemic) [Compound 131, (rac)-3-[[4-[4-[(1R,2S)-2-cyanocyclopropyl]-2,6-dimethyl-phenoxy]-2-methyl-pyrazolo[3,4-d]pyrimidin-6-yl]amino]bicyclo[1.1.1]pentane-1-carbonitrile] | 1470 nM |
| CO[C@H]1COC2(C)c3c(Oc4c(C)cc(/C=C/C#N)cc4C)nc(NC45CC(C#N)(C4)C5)nc3C(=O)N2C1 (single isomer, unassigned) [Example 235] | 22.8 nM |
| CCc1cc(/C=C/C#N)cc(Cl)c1Oc1nc(NC23CC(C#N)(C2)C3)nc2[nH]nc(C)c12 [Example 1, (E)-3-((4-(2-chloro-4-(2-cyanovinyl)-6-ethylphenoxy)-3-methyl-1H-pyrazolo[3,4-d]pyrimidin-6-yl)amino)bicyclo[1.1.1]pentane-1-carbonitrile] | 46.7 nM |
| Cc1cc([C@@H]2C[C@H]2C#N)cc(C)c1Oc1nc(NC23CC(C#N)(C2)C3)nc2nn(C)cc12 (racemic) [Compound 134, (rac)-3-((4-(4-((1R,2R)-2-cyanocyclopropyl)-2,6-dimethylphenoxy)-2-methyl-2H-pyrazolo[3,4-d]pyrimidin-6-yl)amino)bicyclo[1.1.1]pentane-1-carbonitrile] | 262 nM |
| CCn1cc2c(Oc3c(C)cc(/C=C/C#N)cc3C)nc(NC34CC(C#N)(C3)C4)nc2n1 [Compound 143, 3-[[4-[4-[(E)-2-cyanovinyl]-2,6-dimethyl-phenoxy]-2-ethyl-pyrazolo[3,4-d]pyrimidin-6-yl]amino]bicyclo[1.1.1]pentane-1-carbonitrile] | 58.5 nM |
| Cc1cc(/C=C/C#N)cc(C)c1Oc1nc(NC23CC(C#N)(C2)C3)nc2c1[C@H](C(F)(F)F)NC2=O [Example 247, (R,E)-3-((4-(4-(2-cyanovinyl)-2,6-dimethylphenoxy)-7-oxo-5-(trifluoromethyl)-6,7-dihydro-5H-pyrrolo[3,4-d]pyrimidin-2-yl)amino)bicyclo[1.1.1]pentane-1-carbonitrile] | 40.2 nM |

— patent US20250333424A1, “ANTIVIRAL COMPOUNDS” (Gilead Sciences, Inc., priority 2024, published 2025)
